From ChEMBL document CHEMBL1201862, “PubChem BioAssay data set” (2004)
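Grown in 96-well plates, cells were treated for 48 hours with each compound at five concentrations. Insufficient inhibition: endpoint recorded as highest concentration tested. Here, GI50 denotes the concentration required for 50% inhibition of growth.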 The source made the active and inactive calls. Rule as the data show it: active = GI50 up to about 1.1 µM and inactive = higher.

Assays:
Test in all cases: DTP human tumour cell line panel, 48 h
NCI-H226 = system: NCI-H226
XF498 = system: XF498
SK-MEL-2 = system: SK-MEL-2
DMS-273 = system: DMS-273
OVCAR-5 = system: OVCAR-5
HOP-18 = system: HOP-18
KM12 = system: KM12
M14 = system: M14
COLO 205 = system: COLO 205
SN12C = system: SN12C
NCI-H23 = system: NCI-H23
HOP-92 = system: HOP-92
UACC-62 = system: UACC-62
RPMI-8226 = system: RPMI-8226
HOP-62 = system: HOP-62
SK-MEL-5 = system: SK-MEL-5
A549 = system: A549
NCI-H460 = system: NCI-H460
CCRF-CEM = system: CCRF-CEM
OVCAR-4 = system: OVCAR-4
ACHN = system: ACHN
K562 = system: K562
HL-60 = system: HL-60
HCT-15 = system: HCT-15
Malme-3M = system: Malme-3M
RXF 393 = system: RXF 393
OVCAR-3 = system: OVCAR-3
A498 = system: A498
LXFL 529 = system: LXFL 529
OVCAR-8 = system: OVCAR-8
786-0 = system: 786-0
M19-MEL = system: M19-MEL
EKVX = system: EKVX
UO-31 = system: UO-31
IGROV-1 = system: IGROV-1
DLD-1 = system: DLD-1
LOX IMVI = system: LOX IMVI
CAKI-1 = system: CAKI-1
SK-MEL-28 = system: SK-MEL-28
UACC-257 = system: UACC-257
SR = system: SR
U-251 = system: U-251
SF-295 = system: SF-295
NCI-H522 = system: NCI-H522
SW-620 = system: SW-620
SK-OV-3 = system: SK-OV-3
DMS-114 = system: DMS-114
HCT-116 = system: HCT-116
TK-10 = system: TK-10
SNB-19 = system: SNB-19
SF-539 = system: SF-539
HT-29 = system: HT-29
SF-268 = system: SF-268
KM-20L2 = system: KM-20L2
MOLT-4 = system: MOLT-4
SNB-78 = system: SNB-78
HCC 2998 = system: HCC 2998
SNB-75 = system: SNB-75
RXF 631 = system: RXF 631

## COc1cccc(/C(Cl)=C(\C=O)c2cccc(OC)c2)c1
NCI-H226
  GI50: 11 µM (inactive)
XF498
  GI50: 13.8 µM (inactive)
SK-MEL-2
  GI50: 15.4 µM (inactive)
DMS-273
  GI50: 8.17 µM (inactive)
OVCAR-5
  GI50: 19.6 µM (inactive)
HOP-18
  GI50: 16.4 µM (inactive)
KM12
  GI50: 12.8 µM (inactive)
M14
  GI50: 13.1 µM (inactive)
COLO 205
  GI50: 11.9 µM (inactive)
SN12C
  GI50: 14 µM (inactive)
NCI-H23
  GI50: 5.77 µM (inactive)
HOP-92
  GI50: 12.4 µM (inactive)
UACC-62
  GI50: 4.43 µM (inactive)
RPMI-8226
  GI50: 4.62 µM (inactive)
HOP-62
  GI50: 12.3 µM (inactive)
SK-MEL-5
  GI50: 11.5 µM (inactive)
A549
  GI50: 12.1 µM (inactive)
NCI-H460
  GI50: 12.7 µM (inactive)
CCRF-CEM
  GI50: 3.97 µM (inactive)
OVCAR-4
  GI50: 13.8 µM (inactive)
ACHN
  GI50: 6.9 µM (inactive)
K562
  GI50: 4.06 µM (inactive)
HL-60
  GI50: 2.69 µM (inactive)
HCT-15
  GI50: 5.6 µM
Malme-3M
  GI50: 0.946 µM (active)
RXF 393
  GI50: 5.12 µM (inactive)
OVCAR-3
  GI50: 15.4 µM (inactive)
A498
  GI50: 19.3 µM (inactive)
LXFL 529
  GI50: 5.65 µM (inactive)
OVCAR-8
  GI50: 10.7 µM (inactive)
786-0
  GI50: 14.8 µM (inactive)
M19-MEL
  GI50: 12.7 µM (inactive)
EKVX
  GI50: 14.9 µM (inactive)
UO-31
  GI50: 13 µM (inactive)
IGROV-1
  GI50: 21 µM (inactive)
DLD-1
  GI50: 8.43 µM (inactive)
LOX IMVI
  GI50: 6.71 µM (inactive)
CAKI-1
  GI50: 39 µM (inactive)
SK-MEL-28
  GI50: 11.7 µM (inactive)
UACC-257
  GI50: 15.3 µM (inactive)
SR
  GI50: 5.35 µM (inactive)
U-251
  GI50: 10.1 µM (inactive)
SF-295
  GI50: 12.2 µM (inactive)
NCI-H522
  GI50: 2.68 µM (inactive)
SW-620
  GI50: 6.81 µM (inactive)
SK-OV-3
  GI50: 20 µM (inactive)
DMS-114
  GI50: 3.12 µM (inactive)
HCT-116
  GI50: 3.28 µM (inactive)
TK-10
  GI50: 20.4 µM (inactive)
SNB-19
  GI50: 11.3 µM (inactive)
SF-539
  GI50: 17.4 µM (inactive)
HT-29
  GI50: 12.3 µM (inactive)
SF-268
  GI50: 3.88 µM (inactive)
KM-20L2
  GI50: 20.9 µM (inactive)
MOLT-4
  GI50: 7.74 µM (inactive)
SNB-78
  GI50: 4.24 µM (inactive)
HCC 2998
  GI50: 13.2 µM (inactive)
SNB-75
  GI50: 8.24 µM (inactive)

## COC(=O)[C@]1(C)CCC[C@@]2(C)C1CCC1=C[C@@]3(C(C)C)CC[C@]12OO3 (some centres not stated)
NCI-H226
  GI50: 26.3 µM (inactive)
SK-MEL-2
  GI50: 36.5 µM (inactive)
DMS-273
  GI50: 25.7 µM (inactive)
OVCAR-5
  GI50: 22.4 µM (inactive)
KM12
  GI50: 24.6 µM (inactive)
M14
  GI50: 22 µM (inactive)
RXF 631
  GI50: 22.6 µM (inactive)
COLO 205
  GI50: 22.5 µM (inactive)
SN12C
  GI50: 31.3 µM (inactive)
NCI-H23
  GI50: 34.1 µM (inactive)
UACC-62
  GI50: 25.3 µM (inactive)
RPMI-8226
  GI50: 18.2 µM (inactive)
HOP-62
  GI50: 36.9 µM (inactive)
SK-MEL-5
  GI50: 15.7 µM (inactive)
A549
  GI50: 30.6 µM (inactive)
NCI-H460
  GI50: 21.1 µM (inactive)
CCRF-CEM
  GI50: 17.9 µM (inactive)
OVCAR-4
  GI50: 42.3 µM (inactive)
ACHN
  GI50: 36.4 µM (inactive)
K562
  GI50: 25.9 µM (inactive)
HL-60
  GI50: 19.1 µM (inactive)
HCT-15
  GI50: 31.9 µM
Malme-3M
  GI50: 42 µM (inactive)
OVCAR-3
  GI50: 27.8 µM (inactive)
A498
  GI50: 20.4 µM (inactive)
LXFL 529
  GI50: 23.2 µM (inactive)
OVCAR-8
  GI50: 35.8 µM (inactive)
786-0
  GI50: 20.4 µM (inactive)
M19-MEL
  GI50: 25.1 µM (inactive)
EKVX
  GI50: 36.6 µM (inactive)
UO-31
  GI50: 18.5 µM (inactive)
IGROV-1
  GI50: 33.2 µM (inactive)
DLD-1
  GI50: 24.2 µM (inactive)
LOX IMVI
  GI50: 24.7 µM (inactive)
CAKI-1
  GI50: > 10 µM (inactive)
UACC-257
  GI50: 26.2 µM (inactive)
SR
  GI50: 19.4 µM (inactive)
U-251
  GI50: 41.8 µM (inactive)
SF-295
  GI50: 25.8 µM (inactive)
NCI-H522
  GI50: 17.8 µM (inactive)
SW-620
  GI50: 36.1 µM (inactive)
SK-OV-3
  GI50: 60 µM (inactive)
HCT-116
  GI50: 25.2 µM (inactive)
TK-10
  GI50: > 100 µM (inactive)
SNB-19
  GI50: 58.2 µM (inactive)
SF-539
  GI50: 22.3 µM (inactive)
HT-29
  GI50: 15.2 µM (inactive)
SF-268
  GI50: 24.7 µM (inactive)
KM-20L2
  GI50: > 10 µM (inactive)
MOLT-4
  GI50: 25.8 µM (inactive)
SNB-78
  GI50: 54.3 µM (inactive)
HCC 2998
  GI50: 31.3 µM (inactive)

## CC(=O)NNc1nc(C)c(C(=O)NNC(=O)C(=O)Nc2ccc([N+](=O)[O-])cc2C#N)s1
NCI-H226
  GI50: > 100 µM (inactive)
XF498
  GI50: > 100 µM (inactive)
SK-MEL-2
  GI50: > 100 µM (inactive)
DMS-273
  GI50: > 100 µM (inactive)
OVCAR-5
  GI50: > 100 µM (inactive)
KM12
  GI50: > 100 µM (inactive)
M14
  GI50: > 100 µM (inactive)
COLO 205
  GI50: > 100 µM (inactive)
SN12C
  GI50: > 100 µM (inactive)
NCI-H23
  GI50: 96.4 µM (inactive)
UACC-62
  GI50: > 100 µM (inactive)
RPMI-8226
  GI50: > 100 µM (inactive)
HOP-62
  GI50: > 100 µM (inactive)
SK-MEL-5
  GI50: > 100 µM (inactive)
A549
  GI50: > 100 µM (inactive)
NCI-H460
  GI50: > 100 µM (inactive)
CCRF-CEM
  GI50: 32.7 µM (inactive)
OVCAR-4
  GI50: 45.3 µM (inactive)
ACHN
  GI50: 83.6 µM (inactive)
K562
  GI50: 38.1 µM (inactive)
HL-60
  GI50: > 100 µM (inactive)
HCT-15
  GI50: > 100 µM
Malme-3M
  GI50: > 100 µM (inactive)
OVCAR-3
  GI50: 63.5 µM (inactive)
A498
  GI50: 58.1 µM (inactive)
LXFL 529
  GI50: 44.3 µM (inactive)
OVCAR-8
  GI50: > 100 µM (inactive)
786-0
  GI50: 67.3 µM (inactive)
M19-MEL
  GI50: > 100 µM (inactive)
EKVX
  GI50: 96.4 µM (inactive)
UO-31
  GI50: > 100 µM (inactive)
IGROV-1
  GI50: > 100 µM (inactive)
LOX IMVI
  GI50: 52.7 µM (inactive)
SK-MEL-28
  GI50: > 100 µM (inactive)
UACC-257
  GI50: > 100 µM (inactive)
SR
  GI50: 67.1 µM (inactive)
U-251
  GI50: 52.7 µM (inactive)
SF-295
  GI50: > 10 µM (inactive)
NCI-H522
  GI50: 76 µM (inactive)
SW-620
  GI50: 55.1 µM (inactive)
SK-OV-3
  GI50: > 100 µM (inactive)
DMS-114
  GI50: > 100 µM (inactive)
HCT-116
  GI50: > 100 µM (inactive)
TK-10
  GI50: > 100 µM (inactive)
SNB-19
  GI50: > 100 µM (inactive)
SF-539
  GI50: > 100 µM (inactive)
HT-29
  GI50: > 100 µM (inactive)
SF-268
  GI50: 52.2 µM (inactive)
KM-20L2
  GI50: > 100 µM (inactive)
MOLT-4
  GI50: 38.5 µM (inactive)
SNB-78
  GI50: > 100 µM (inactive)
HCC 2998
  GI50: > 100 µM (inactive)
